US8530512B2, “Broad spectrum gram-positive antimicrobials and anthelmintics with efficacy against drug-resistant strains and Mycobacterium species” (priority 2004, dated 2013)
In brackets after ≈: the same amount, converted by molar mass. Read-outs that look alike come from different tables or passages of the source.

Experiments:
[1] = system: Gram-positive bacteria tested; assay: organism not typed; type: cell-based
M. kansasii = assay: MIC assay; type: cell-based; conditions: Mycobacterium kansasii
[2] = system: Staphylococcus aureus MRSA MC-1; assay: microbe, parasite or virus in culture; type: cell-based; conditions: Staphylococcus aureus, MRSA, read-out: MIC S. aureus MC-1
Streptococcus bovis = assay: MIC assay; type: cell-based; conditions: Streptococcus equinus, Table 4
S. aureus MW2 = assay: murine thigh abscess model of infection; conditions: for CFU/thigh reduced: single intraperitoneal injection
[3] = system: vancomycin-resistant enterococci; assay: microbe, parasite or virus in culture; type: cell-based; conditions: Enterococcus, VRE, read-out: MICs
[4] = system: Enterococcus sp., including VRE strains; assay: MIC assay; conditions: read-out: MICs
C. elegans = assay: motility assay; type: in vivo; set-up: key to Movement score, 1/1600 / Movement score, 1/800 / Movement score, 1/400 / Movement score, 1/200 / Movement score, 1/100: normal (−); slow (+); very slow (++); not motile/paralyzed (+++); conditions: Ive 1 ng/μL in all wells
[5] = system: Staphylococcus aureus MW 2; assay: MIC assay; type: cell-based; conditions: MW2, Table 4
Streptococcus pneumoniae = assay: MIC assay; type: cell-based; conditions: Table 4; Streptococcus pneumoniae (source UWL)
Propionibacterium acnes = assay: MIC assay; type: cell-based; conditions: Cutibacterium acnes, Table 4
Clostridium difficile = assay: MIC assay; type: cell-based; conditions: Clostridioides difficile, Table 4
[6] = system: Erysipelothrix rhusiopathiae; assay: MIC assay; type: cell-based; conditions: Table 4
[7] = system: S. aureus strains tested, including MRSA; assay: MIC assay
Clostridium novyi A = assay: MIC assay; type: cell-based; conditions: Table 4
Mycobacterium chelonae = assay: MIC assay; type: cell-based
[8] = system: Staphylococcus aureus ATCC 29213; assay: microbe, parasite or virus in culture; type: cell-based; conditions: ATCC29213
[9] = system: Mycobacterium intracellulare; assay: MIC assay; type: cell-based; conditions: Mycobacterium intracellulare
[10] = system: community-associated methicillin-resistant S. aureus (CA-MRSA) strains; assay: MIC screening against CA-MRSA strains; type: cell-based
[11] = system: Enterococcus faecium VRE 14; assay: microbe, parasite or virus in culture; type: cell-based
[12] = system: Gram-positive bacterial species tested; assay: Minimal Bacterial Concentration Testing (MBC); type: cell-based
Procedure: Following the MIC, the last three wells showing no bacterial growth were diluted and plated onto BHI agar to do MBC testing.

Mycobacterium fortuitum = assay: MIC assay; type: cell-based; conditions: Mycolicibacterium fortuitum
[13] = system: Enterococcus faecalis ATCC 29212; assay: microbe, parasite or virus in culture; type: cell-based; conditions: ATCC29212; Table 4; Enterococcus faecalis ATCC 29212; read-out: MIC
[14] = system: methicillin-sensitive S. aureus (MSSA) strains; assay: MIC screening against MSSA strains; type: cell-based; conditions: Table 5, 39 tested
[15] = system: Corynebacterium pseudodiphthericum; assay: microbe, parasite or virus in culture; type: cell-based; conditions: Corynebacterium pseudodiphtheriticum; Table 4; Corynebacterium pseudodiphthericum; read-out: MIC
Clostridium tertium = assay: MIC assay; type: cell-based; conditions: Table 4
Streptococcus agalactiae = assay: microbe, parasite or virus in culture; type: cell-based; conditions: Table 4, read-out: MIC
Mycobacterium bovis BCG = assay: microbe, parasite or virus in culture; type: cell-based; conditions: Mycobacterium tuberculosis variant bovis BCG, Table 4, Mycobacterium bovis BCG
[16] = system: Enterococcus faecium VRE 1; assay: microbe, parasite or virus in culture; type: cell-based; conditions: Enterococcus faecium, VRE
M. smegmatis = assay: MIC assay; type: cell-based; conditions: Mycolicibacterium smegmatis; Table 6; read-out: MIC M. smegmatis
[17] = system: Peptostreptococcus anaerobius; assay: MIC assay; type: cell-based; conditions: Table 4
Streptococcus mitis = assay: microbe, parasite or virus in culture; type: cell-based; conditions: Table 4, read-out: MIC
Corynebacterium xerosis = assay: microbe, parasite or virus in culture; type: cell-based; conditions: Table 4, read-out: MIC
Bacillus cereus = assay: microbe, parasite or virus in culture; type: cell-based; conditions: Table 4; Bacillus cereus; read-out: MIC
Mycobacterium avium = assay: MIC assay; type: cell-based; conditions: Mycobacterium avium
[18] = Safety Testing with Swiss Webster Mice; type: in vivo
Listeria monocytogenes = assay: microbe, parasite or virus in culture; type: cell-based; conditions: Table 4, read-out: MIC

With `COc1cc(O)cc(/C=C/c2cc3ccccc3s2)c1` [SK-03-92, (E)-3-(2-(benzo[b]thiophen-2-yl)vinyl)-5-methoxyphenol] the “killing of Gram-positive bacterial species” value ([1]; all of the Gram-positive bacterial species tested) was “killed”, the MIC ([1]; variety of other Gram-positive species) was 1 to 8 µg/mL (≈ 3.54 to 28.3 µM) and the MIC (M. kansasii; Table 4, Mycobacterium kamasii, read-out: MIC) was 16 µg/mL (≈ 56.7 µM). The MIC (M. kansasii; Table 6, read-out: MIC M. kansasii) was 16 µg/mL (≈ 56.7 µM), the MIC [2] was 2 µg/mL (≈ 7.08 µM) and the MIC (Streptococcus bovis) was 2 µg/mL (≈ 7.08 µM). The CFU/thigh reduced (S. aureus MW2; high dose, preliminary) was 3 logs, the CFU/thigh reduced (S. aureus MW2; low dose, preliminary) was 2.5 logs and the in vivo efficacy (S. aureus MW2; thigh abscess model) was “in vivo efficacy”. The “drop in the bacterial counts” value (S. aureus MW2; two days after drug injection, preliminary) was 2-3 log, the MIC [3] was 2 µg/mL (≈ 7.08 µM) and the MIC [4] was 2 to 4 µg/mL (≈ 7.08 to 14.2 µM). For the same compound, the “Movement score, 1/100” value (C. elegans; dilution 1/100 of stock (10.24 μg/μL; SK-03-92 1.024 μg/μL)) was “+”, the “Movement score, 1/200” value (C. elegans; dilution 1/200 of stock (10.24 μg/μL; SK-03-92 1.024 μg/μL)) was “−” and the “Movement score, 1/400” value (C. elegans; dilution 1/400 of stock (10.24 μg/μL; SK-03-92 1.024 μg/μL)) was “−”. For the same compound, the “Movement score, 1/800” value (C. elegans; dilution 1/800 of stock (10.24 μg/μL; SK-03-92 1.024 μg/μL)) was “−”, the “Movement score, 1/1600” value (C. elegans; dilution 1/1600 of stock (10.24 μg/μL; SK-03-92 1.024 μg/μL), overnight 20° C.) was “−” and the MIC [5] was 2 µg/mL (≈ 7.08 µM). The MIC (Streptococcus pneumoniae) was 16 µg/mL (≈ 56.7 µM), the MIC (Propionibacterium acnes) was 2 µg/mL (≈ 7.08 µM) and the MIC (Clostridium difficile) was 2 µg/mL (≈ 7.08 µM). For the same compound, the MIC [6] was 8 µg/mL (≈ 28.3 µM), the MIC ([7]; Staphylococcus aureus, MRSA, read-out: MICs) was 2 to 4 µg/mL (≈ 7.08 to 14.2 µM) and the “relative activity against S. aureus” value ([7]; comparison among analogs of Table 6) was “best activity”. For the same compound, the MIC (Clostridium novyi A) was 2 µg/mL (≈ 7.08 µM), the MIC (Mycobacterium chelonae; Table 4, Mycobacterium chelonae, read-out: MIC) was 32 µg/mL (≈ 113 µM) and the MIC (Mycobacterium chelonae; Table 6, read-out: MIC M. chelonae) was 32 µg/mL (≈ 113 µM). For the same compound, the MIC ([8]; Table 4, Staphylococcus aureus ATCC 29213, read-out: MIC) was 2 µg/mL (≈ 7.08 µM), the MIC ([8]; Staphylococcus aureus, Table 6, read-out: MIC S. aureus ATCC 29213) was 4 µg/mL (≈ 14.2 µM) and the MIC ([9]; Table 6, read-out: MIC M. intracellulare) was 32 µg/mL (≈ 113 µM). The MIC ([9]; Table 4, read-out: MIC) was 32 µg/mL (≈ 113 µM), the MIC ([10]; Staphylococcus aureus, many MRSA strains) was 2 to 4 µg/mL (≈ 7.08 to 14.2 µM) and the MIC range ([10]; Table 5, CA-MRSA, 43 tested) was 2 to 4 µg/mL. The MIC [11] was 2 µg/mL (≈ 7.08 µM), the MBC analysis [12] was “bactericidal” and the MIC (Mycobacterium fortuitum; Table 4, Mycobacterium fortuitum, read-out: MIC) was 16 µg/mL (≈ 56.7 µM). For the same compound, the MIC (Mycobacterium fortuitum; Table 6, read-out: MIC M. fortuitum) was 16 µg/mL (≈ 56.7 µM), the MIC [13] was 4 µg/mL (≈ 14.2 µM) and the MIC range [14] was 1 to 2 µg/mL. It also gave an MIC [15] of 2 µg/mL (≈ 7.08 µM), an MIC (Clostridium tertium) of 1 µg/mL (≈ 3.54 µM) and an MIC (Streptococcus agalactiae) of 2 µg/mL (≈ 7.08 µM). For the same compound, the MIC (Mycobacterium bovis BCG) was 25 µg/mL (≈ 88.5 µM), the MIC [16] was 2 µg/mL (≈ 7.08 µM) and the MIC (M. smegmatis) was 32 µg/mL (≈ 113 µM). The MIC [17] was 1 µg/mL (≈ 3.54 µM), the MIC (Streptococcus mitis) was 2 µg/mL (≈ 7.08 µM) and the MIC (Corynebacterium xerosis) was 2 µg/mL (≈ 7.08 µM). For the same compound, the MIC (Bacillus cereus) was 1 µg/mL (≈ 3.54 µM), the MIC (Mycobacterium avium; Table 6, read-out: MIC M. avium) was 16 µg/mL (≈ 56.7 µM) and the MIC (Mycobacterium avium; Table 4, read-out: MIC) was 16 µg/mL (≈ 56.7 µM). The harm to mice ([18]; intraperitoneal injections up to 3 g/kg, preliminary) was “did not appear to harm the mice”, the harm to mice ([18]; ~2 g/kg dose intraperitoneally and after a repeated dose) was “did not harm mice” and the MIC (Listeria monocytogenes) was 2 µg/mL (≈ 7.08 µM).
